ChEMBL document CHEMBL2331505, “Synthesis of quinoline derivatives: discovery of a potent and selective phosphodiesterase 5 inhibitor for the treatment of Alzheimer's disease” (Eur J Med Chem, 2013)

Legend:
Phosphodiesterase 3 = Phosphodiesterase 3 (Homo sapiens, UniProt Q14432+Q13370); assay: Inhibition of PDE3 (unknown origin) using FAM-cGMP and FAM-cAMP as substrate after 60 mins by fluorescence assay; format: protein assay
Phosphodiesterase 8 = Phosphodiesterase 8 (Homo sapiens, UniProt O95263+O60658); assay: Inhibition of PDE8 (unknown origin) using FAM-cAMP as substrate after 60 mins by fluorescence assay; format: protein assay
Phosphodiesterase 7 = Phosphodiesterase 7 (Homo sapiens, UniProt Q13946+Q9NP56); assay: Inhibition of PDE7 (unknown origin) using FAM-cAMP as substrate after 60 mins by fluorescence assay; format: protein assay
Phosphodiesterase 1 = Phosphodiesterase 1 (Homo sapiens, UniProt P54750+Q01064+Q14123); assay: Inhibition of PDE1 (unknown origin) using FAM-cGMP and FAM-cAMP as substrate after 60 mins by fluorescence assay; format: protein assay
[1] = biological target: High affinity cGMP-specific 3',5'-cyclic phosphodiesterase 9A (Homo sapiens, UniProt O76083); assay: Inhibition of PDE9 (unknown origin) using FAM-cGMP as substrate after 60 mins by fluorescence assay
Sequence of High affinity cGMP-specific 3',5'-cyclic phosphodiesterase 9A (O76083 whole entry): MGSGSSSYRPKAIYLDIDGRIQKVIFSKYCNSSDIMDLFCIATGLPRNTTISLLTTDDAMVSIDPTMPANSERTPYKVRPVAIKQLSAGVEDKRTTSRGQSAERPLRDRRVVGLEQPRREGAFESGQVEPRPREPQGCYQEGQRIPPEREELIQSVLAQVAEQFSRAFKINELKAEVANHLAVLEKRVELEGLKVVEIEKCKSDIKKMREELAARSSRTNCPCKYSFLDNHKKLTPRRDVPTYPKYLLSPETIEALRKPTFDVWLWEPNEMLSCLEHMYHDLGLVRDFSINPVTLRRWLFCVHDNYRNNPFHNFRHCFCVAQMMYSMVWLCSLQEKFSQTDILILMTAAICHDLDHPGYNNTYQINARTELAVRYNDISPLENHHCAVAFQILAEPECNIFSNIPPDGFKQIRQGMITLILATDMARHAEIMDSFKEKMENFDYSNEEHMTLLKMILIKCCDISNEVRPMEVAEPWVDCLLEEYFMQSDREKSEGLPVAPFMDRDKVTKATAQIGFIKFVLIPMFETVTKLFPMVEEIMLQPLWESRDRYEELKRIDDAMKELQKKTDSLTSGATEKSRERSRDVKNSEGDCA

[2] = biological target: cAMP and cAMP-inhibited cGMP 3',5'-cyclic phosphodiesterase 10A (Homo sapiens, UniProt Q9Y233); assay: Inhibition of PDE10 (unknown origin) using FAM-cGMP and FAM-cAMP as substrate after 60 mins by fluorescence assay
Sequence of cAMP and cAMP-inhibited cGMP 3',5'-cyclic phosphodiesterase 10A (Q9Y233 whole entry): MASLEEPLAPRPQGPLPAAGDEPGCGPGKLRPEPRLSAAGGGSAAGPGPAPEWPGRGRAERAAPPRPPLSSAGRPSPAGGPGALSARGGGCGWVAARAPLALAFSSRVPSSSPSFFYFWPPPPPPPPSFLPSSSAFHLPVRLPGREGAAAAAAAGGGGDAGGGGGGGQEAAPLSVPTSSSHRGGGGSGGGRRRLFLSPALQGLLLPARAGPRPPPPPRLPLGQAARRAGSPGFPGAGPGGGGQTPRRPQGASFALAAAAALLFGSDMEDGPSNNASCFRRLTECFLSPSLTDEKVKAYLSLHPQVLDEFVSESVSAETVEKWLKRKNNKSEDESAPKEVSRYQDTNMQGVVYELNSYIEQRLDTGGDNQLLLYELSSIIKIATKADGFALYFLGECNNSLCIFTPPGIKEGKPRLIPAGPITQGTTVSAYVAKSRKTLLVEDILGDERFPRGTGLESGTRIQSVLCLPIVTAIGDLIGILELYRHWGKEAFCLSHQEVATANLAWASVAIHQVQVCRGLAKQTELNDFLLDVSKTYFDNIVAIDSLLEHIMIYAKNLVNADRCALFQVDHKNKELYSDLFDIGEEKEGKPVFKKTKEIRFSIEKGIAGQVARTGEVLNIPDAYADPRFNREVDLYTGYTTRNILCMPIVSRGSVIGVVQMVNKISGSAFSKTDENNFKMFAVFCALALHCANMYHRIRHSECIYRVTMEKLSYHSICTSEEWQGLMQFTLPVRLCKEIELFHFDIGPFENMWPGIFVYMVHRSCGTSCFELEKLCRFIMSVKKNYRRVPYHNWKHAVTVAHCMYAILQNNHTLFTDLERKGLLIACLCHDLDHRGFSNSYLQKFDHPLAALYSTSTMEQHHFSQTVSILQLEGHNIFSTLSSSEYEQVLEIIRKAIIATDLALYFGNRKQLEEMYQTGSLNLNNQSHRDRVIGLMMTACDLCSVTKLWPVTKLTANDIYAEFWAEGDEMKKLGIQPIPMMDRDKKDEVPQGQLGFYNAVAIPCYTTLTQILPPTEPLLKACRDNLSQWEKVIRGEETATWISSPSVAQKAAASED

[3] = biological target: cGMP-dependent 3',5'-cyclic phosphodiesterase (Homo sapiens, UniProt O00408); assay: Inhibition of PDE2 (unknown origin) using FAM-cGMP and FAM-cAMP as substrate after 60 mins by fluorescence assay
Sequence of cGMP-dependent 3',5'-cyclic phosphodiesterase (O00408 whole entry): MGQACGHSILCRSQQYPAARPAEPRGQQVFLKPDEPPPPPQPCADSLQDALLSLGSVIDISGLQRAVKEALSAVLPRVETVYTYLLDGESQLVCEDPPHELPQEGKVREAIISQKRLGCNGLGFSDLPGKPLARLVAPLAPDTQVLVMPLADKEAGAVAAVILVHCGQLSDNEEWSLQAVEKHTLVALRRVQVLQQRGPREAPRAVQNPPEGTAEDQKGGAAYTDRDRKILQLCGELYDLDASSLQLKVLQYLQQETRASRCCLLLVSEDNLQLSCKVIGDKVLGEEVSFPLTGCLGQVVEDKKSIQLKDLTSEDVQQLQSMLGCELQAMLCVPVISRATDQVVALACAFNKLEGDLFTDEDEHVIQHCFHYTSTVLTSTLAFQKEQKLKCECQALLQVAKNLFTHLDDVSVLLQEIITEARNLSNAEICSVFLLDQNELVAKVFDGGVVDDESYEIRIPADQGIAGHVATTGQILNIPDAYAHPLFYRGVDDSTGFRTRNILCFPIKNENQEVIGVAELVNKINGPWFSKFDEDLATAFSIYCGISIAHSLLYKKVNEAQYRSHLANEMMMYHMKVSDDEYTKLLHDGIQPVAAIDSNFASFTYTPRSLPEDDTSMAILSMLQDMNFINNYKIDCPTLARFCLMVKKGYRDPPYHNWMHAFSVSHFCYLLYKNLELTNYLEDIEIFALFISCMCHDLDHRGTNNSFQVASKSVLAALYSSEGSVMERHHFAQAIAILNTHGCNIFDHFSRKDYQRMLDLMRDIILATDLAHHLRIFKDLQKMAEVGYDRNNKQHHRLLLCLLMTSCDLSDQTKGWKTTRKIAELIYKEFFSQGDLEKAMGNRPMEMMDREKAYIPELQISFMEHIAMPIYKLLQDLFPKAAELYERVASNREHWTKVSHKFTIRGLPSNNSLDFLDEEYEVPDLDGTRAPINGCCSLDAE

Homo sapiens [4] = organism: Homo sapiens; assay: Selectivity ratio of IC50 for PDE1 (unknown origin) to IC50 for PDE5 (unknown origin)
Homo sapiens [5] = organism: Homo sapiens; assay: Selectivity ratio of IC50 for PDE11 (unknown origin) to IC50 for PDE5 (unknown origin)
Homo sapiens [6] = organism: Homo sapiens; assay: Selectivity ratio of IC50 for PDE3 (unknown origin) to IC50 for PDE5 (unknown origin)
Phosphodiesterase 6 = assay: Inhibition of PDE6 (unknown origin) using FAM-cGMP as substrate after 60 mins by fluorescence assay; format: protein assay, Homo sapiens
Homo sapiens [7] = organism: Homo sapiens; assay: Selectivity ratio of IC50 for PDE6 (unknown origin) to IC50 for PDE5 (unknown origin)
Homo sapiens [8] = organism: Homo sapiens; assay: Selectivity ratio of IC50 for PDE9 (unknown origin) to IC50 for PDE5 (unknown origin)
[9] = biological target: cGMP-specific 3',5'-cyclic phosphodiesterase (Homo sapiens, UniProt O76074); assay: Inhibition of PDE5 (unknown origin) using FAM-cGMP as substrate after 60 mins by fluorescence assay
Homo sapiens [10] = organism: Homo sapiens; assay: Selectivity ratio of IC50 for PDE2 (unknown origin) to IC50 for PDE5 (unknown origin)
Homo sapiens [11] = organism: Homo sapiens; assay: Selectivity ratio of IC50 for PDE10 (unknown origin) to IC50 for PDE5 (unknown origin)
[12] = biological target: Dual 3',5'-cyclic-AMP and -GMP phosphodiesterase 11A (Homo sapiens, UniProt Q9HCR9); assay: Inhibition of PDE11 (unknown origin) using FAM-cGMP and FAM-cAMP as substrate after 60 mins by fluorescence assay
Sequence of Dual 3',5'-cyclic-AMP and -GMP phosphodiesterase 11A (Q9HCR9 whole entry): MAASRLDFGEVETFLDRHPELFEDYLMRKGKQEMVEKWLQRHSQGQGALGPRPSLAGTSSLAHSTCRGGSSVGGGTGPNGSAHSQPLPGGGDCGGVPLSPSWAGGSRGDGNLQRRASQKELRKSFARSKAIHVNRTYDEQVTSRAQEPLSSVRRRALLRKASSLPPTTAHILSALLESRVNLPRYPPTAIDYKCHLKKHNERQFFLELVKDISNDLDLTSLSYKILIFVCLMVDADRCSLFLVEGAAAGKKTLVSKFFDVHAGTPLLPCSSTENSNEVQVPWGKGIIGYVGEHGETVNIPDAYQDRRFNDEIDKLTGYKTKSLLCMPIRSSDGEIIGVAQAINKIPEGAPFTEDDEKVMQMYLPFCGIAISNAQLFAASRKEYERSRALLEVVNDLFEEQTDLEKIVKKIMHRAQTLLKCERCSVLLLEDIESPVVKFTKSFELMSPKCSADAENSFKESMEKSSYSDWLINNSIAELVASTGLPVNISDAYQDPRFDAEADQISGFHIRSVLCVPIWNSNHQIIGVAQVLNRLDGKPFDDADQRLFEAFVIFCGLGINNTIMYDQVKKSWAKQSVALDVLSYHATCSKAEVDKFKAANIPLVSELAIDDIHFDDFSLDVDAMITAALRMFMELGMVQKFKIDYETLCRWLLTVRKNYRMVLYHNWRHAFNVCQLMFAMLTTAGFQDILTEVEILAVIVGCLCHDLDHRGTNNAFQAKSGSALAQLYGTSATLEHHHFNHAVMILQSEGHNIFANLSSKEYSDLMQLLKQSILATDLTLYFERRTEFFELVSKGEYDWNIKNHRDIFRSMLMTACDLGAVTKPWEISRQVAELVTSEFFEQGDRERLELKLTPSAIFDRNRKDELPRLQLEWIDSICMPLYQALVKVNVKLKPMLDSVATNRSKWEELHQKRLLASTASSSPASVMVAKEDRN

Phosphodiesterase 4 = Phosphodiesterase 4 (Homo sapiens, UniProt P27815+Q08499+Q07343+Q08493); assay: Inhibition of PDE4 (unknown origin) using FAM-cAMP as substrate after 60 mins by fluorescence assay; format: protein assay
Homo sapiens [13] = organism: Homo sapiens; assay: Selectivity ratio of IC50 for PDE8 (unknown origin) to IC50 for PDE5 (unknown origin)
Homo sapiens [14] = organism: Homo sapiens; assay: Selectivity ratio of IC50 for PDE4 (unknown origin) to IC50 for PDE5 (unknown origin)
Homo sapiens [15] = organism: Homo sapiens; assay: Selectivity ratio of IC50 for PDE7 (unknown origin) to IC50 for PDE5 (unknown origin)

SMILES | IC50 (Phosphodiesterase 3) [µM] | IC50 (Phosphodiesterase 8) [µM] | IC50 (Phosphodiesterase 7) [µM] | IC50 (Phosphodiesterase 1) [µM] | IC50 [1] [µM] | IC50 [2] [µM] | IC50 [3] [µM] | IC50 [9] [µM] | also measured
CN1CC(=O)N2[C@H](c3ccc4c(c3)OCO4)c3[nH]c4ccccc4c3C[C@@H]2C1=O | > 10 | > 10 | > 10 | > 10 | > 10 | > 10 | > 10 |  | 
COc1ccc(CNc2c(CO)cnc3c(N(C)C)cc(C#N)cc23)cc1Cl | > 10 | > 10 | > 10 | > 10 | > 10 | > 10 | > 10 | 0.0004 | Ratio IC50 (Homo sapiens [4]): > 10000; Ratio IC50 (Homo sapiens [5]): > 10000; Ratio IC50 (Homo sapiens [6]): > 10000; IC50 (Phosphodiesterase 6): 5.1 µM; Ratio IC50 (Homo sapiens [7]): 12800; Ratio IC50 (Homo sapiens [8]): > 10000; Ratio IC50 (Homo sapiens [10]): > 10000; Ratio IC50 (Homo sapiens [11]): > 10000; IC50 [12]: > 10 µM; IC50 (Phosphodiesterase 4): > 10 µM; Ratio IC50 (Homo sapiens [13]): > 10000; Ratio IC50 (Homo sapiens [14]): > 10000; Ratio IC50 (Homo sapiens [15]): > 10000
CCCc1nc(C)c2c(=O)nc(-c3cc(S(=O)(=O)N4CCN(CC)CC4)ccc3OCC)[nH]n12 |  | > 10 |  |  |  |  |  |  | 
COc1ccc(CNc2c(CO)cnc3c(NCCN(C)C)cc(C#N)cc23)cc1Cl |  |  |  |  |  |  |  | 0.0043 | 
